Values quoted from earlier work in US6645994B1, “Method of treating dry eye disorders” (Alcon, Inc., priority 2001, dated 2003).

What was measured:
mucin subtype MUC1 = settings: literature report, Cornea 2000
[1] = test system: soluble goblet cell mucins (MUC2, MUC5AC); settings: literature report, Cornea 2000
acyl-CoA synthetase = settings: compared with triacsins A, B and C

Row | SMILES | secretion of mucin subtype MUC1 (mucin subtype MUC1) | secretion of soluble goblet cell mucins (MUC2, MUC5AC) [1] | relative potency as acyl-CoA synthetase inhibitor among triacsins (acyl-CoA synthetase)
1 | CCCCC[C@H](O)/C=C/C=C\C/C=C\C/C=C\CCCC(=O)O [15(S)-HETE] | effective secretagogue | inability of 15(S)-HETE to stimulate secretion | –
2 | CC/C=C/C=C/C=C/C=C/C=NN=NO [Triacsin C, 1-hydroxy-3-(E,E,E,E-2′4′6′8′-undecatetraenylidine) triazene] | – | – | most potent of these compounds
